# Laboratory results published in patent US20070213402A1, “Compounds which interact with the thyroid hormone receptor for the treatment of fibrotic disease” (priority 1998, published 2007).
# Legend:
# collagenase I promoter = experiment: Experiment 1: collagenase I promoter (-73/+63)-luciferase in CV1 cells transfected with pSG5ARF (androgen receptor); assay type: cell-based, African Green Monkey; conditions: for % control (AR): Blank = 100
# Description: Two plasmid constructs were introduced by standard calcium phosphate precipitation of DNA followed by glycerol shock (Ausubel F M, Brent R, Kingston D D, Moore J G et al Current protocols in molecular biology 1994 Greene Publishing Associates/Wiley-Interscience, New York, N.Y.) using a transformed African Green Monkey kidney cell line (CV1) (Schneikert J, Peterziel H, Defossez P-A, Klocker H, de Launoit Y and Cato A C B Androgen receptor-Ets protein interaction is a novel mechanism for steroid hormone-mediated down-modulation of matrix metalloproteinase expression, Journal of Biological Chemistry. Vol 271(39) (pp 23907-23913), 1996).
# Accordingly, the following two plasmids were included into CV1 cells described above — • (a) Either of GR1 or pSG5ARF containing glucocorticoid or androgen receptor (AR) respectively, both at 2 ug per 5×10^5 cells, driven by the Rous sarcoma virus promoter, and • (b) a plasmid containing the −73/+63 portion of the collagenase I promoter linked to luciferase gene at 8 ug per 5×10^5 cells.
# CPII was compound II above, clobuzarit.
# [1] = tested on: collagenase (MMP-1) promoter; experiment: Experiment 4.1: collagenase (MMP-1) promoter (-517/+63)-luciferase in MCF-7 cells, endogenous thyroid hormone receptors; assay type: cell-based, human; conditions: MCF-7, endogenous thyroid hormone receptors; for % Control: Blank = 100
# Protocol: (§1) These experiments were intended to identify the receptor through which compounds I might be acting to block collagenase promoter activity.
# (§2) Transfection procedure hereinbefore described with CV1 cells was repeated using MCF-7 mammary breast cancer cells derived from pleural effusion from a breast cancer patient. Additionally, each experiment included transfection of a plasmid (at 8 ug per 5×10^5 cells) containing the −517/+63 section of the collagenase (MMP-1) promoter linked to the luciferase gene. TPA was used as above to stimulate activity of the collagenase promoter resulting in luciferase production. Compound II or 3,3,5-triiodo-L-thyronine (T3) was included (both at 10^−8M), the latter being a known ligand for the thyroid hormone receptor.
# Experiment 4.1. As MCF-7 cells express endogenous thyroid hormone receptors, only the collagenase promoter plasmid (at 8 ug per 5×10^5 cells) was transfected into the MCF-7 cells.
# [2] = tested on: collagenase (MMP-1) promoter; experiment: Experiment 4.2: collagenase (MMP-1) promoter-luciferase in MCF-7 cells with antisense construct for the thyroid receptor; assay type: cell-based, human; conditions: MCF-7 + thyroid receptor antisense; for % Control: Blank = 100
# Protocol: as §1, §2
# Experiment 4.2. The procedure of Experiment 4.1 was repeated except that a second plasmid, containing 662 bp antisense construct for the thyroid receptor (at 8 ug per 5×10^5 cells) was additionally transfected.
# [3] = tested on: collagenase (MMP-1) promoter; experiment: Experiment 4.3: collagenase (MMP-1) promoter-luciferase in MCF-7 cells with transfected chick thyroid hormone receptor; assay type: cell-based, human; conditions: MCF-7 + chick thyroid hormone receptor; for % Control: Blank = 100
# Protocol: as §1, §2
# c-jun = experiment: Experiment 5: immunoblot of phosphorylated (serine 73) c-jun in rheumatoid fibroblasts; assay type: cell-based, human; conditions: 36 hours, 10 ng/ml TPA plus 5×10^-7M substance, compared to TPA alone (lane 1)
# Protocol: Rheumatoid fibroblasts were cultured from synovium obtained from the knee joint of a patient with rheumatoid arthritis. Cells were cultured in monolayer with DMEM tissue culture medium (Gibco) with the inclusion of 5% v/v charcoal stripped serum in 75 cm^2 flasks. The cells were treated for 36 hours with the addition of 10 ng/ml TPA (phorbol ester) plus 5×10^−7M thyroid hormone, Compound II or Compound III. TPA and drugs were added at time zero and at 30 hours, the TPA addition ensured phosphorylation of c-jun.
# After 36 hours, cells were lysed in phosphate buffered saline (PBS) containing protease inhibitors and 0.1% Triton-X-100, and then boiled for 5 minutes in non-reducing gel loading buffer. Samples of cell lysate corresponding to equal cell number were loaded onto a 12.5% SDS polyacrylamide gel, and electrophoresis using a Bio-Rad™, (Bio-Rad Laboratories, California USA) Mini Protean II cell was performed at approximately 100V for one hour.
# Transfer of proteins to nitrocellulose membrane was performed using a Bio-Rad Mini Trans-Blot transfer cell.
# Immunoblotting was performed using polyclonal rabbit anti-human phosphorylation specific (set 73) c-jun (cat. No 06659, Upstate Biotechnology), or MMP-1 (cat. No. RDI-MMP1Habr, Research Diagnostics) antibodies diluted 1:1000 in Tris buffered saline+3% fat free milk powder. […]
# [4] = substance added with TPA 75 ng/ml, DHT 10^-7M
# [5] = substance 10^-8M added with TPA
# [6] = substance added alone, CPII 10^-8M
smiles,measurement,setting,value
"CC(C)(OCc1ccc(-c2ccc(Cl)cc2)cc1)C(=O)O [Compound II, 1-[4-(4-chlorophenyl)benzyloxy]-1-methylpropionic acid]",% control (AR),collagenase I promoter; substance added alone,51%
same,Raw counts (AR),"collagenase I promoter; substance added alone, TPA 75 ng/ml",1374 counts
same,Raw counts (AR),collagenase I promoter; [4],5986 counts
same,% control (AR),collagenase I promoter; [4],224%
same,"collagenase I activation, in words (AR)","collagenase I promoter; TPA-stimulated, androgen receptor",able to down regulate collagenase I activation
same,"effect on TPA stimulation of luciferase production, in words",[1],able further to enhance TPA stimulation of luciferase production
same,Raw Counts,[1]; [5],352376 counts
same,% Control,[1]; [5],2802.2%
same,% Control,[1]; substance added alone,47.9%
same,Raw Counts,[1]; [6],6029 counts
same,"luciferase production when thyroid hormone receptor synthesis is inhibited, in words",[2],substantially prevented
same,Raw Counts,[2]; [5],8716 counts
same,% Control,[2]; [5],597.8%
same,% Control,[2]; substance added alone,163.2%
same,Raw Counts,[2]; [6],2379 counts
same,"stimulated collagenase transcription, in words",[3]; TPA,able to reduce stimulated collagenase transcription
same,Raw Counts,[3]; [5],4414 counts
same,% Control,[3]; [5],202%
same,% Control,[3]; substance added alone,72%
same,Raw Counts,[3]; [6],1572 counts
same,"amount of phosphorylation of c-jun (serine 73), band intensity",c-jun,lower intensity
